The test system of assay [1] is phosphorylated ERK downstream of KRAS G12C in MIA PaCa2 cells. In words: Cell p-ERK detection experiment (HTRF) in MIA PaCa2. It counts as cell-based, human. Particulars: read-out: p-ERK IC50. Put shortly:
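Phospho-ERK (T202/Y204) measured by HTRF after 30 min lysis and 4 h antibody incubation in MIA PaCa2 (KRAS G12C) cells, seeded at 2.5E4 per well and treated 2 h with compounds in 3.16-fold steps, final DMSO 0.1%. IC50 from a four-parameter fit of percent inhibition relative to DMSO and blank wells.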

Assay [2] concerns KRAS G12C mutant MIA PaCa-2 cells. In words: Cell proliferation inhibition experiment, 3D spheroid, CellTiter-Glo, MIA PaCa-2. It counts as cell-based, human. Particulars: read-out: MIA-PaCa2 IC50. Put shortly: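 Luminescent ATP read-out (CellTiter-Glo) after 5-day compound treatment of spheroids formed overnight from 200 MIA PaCa-2 cells/well; compounds in 3.16-fold series, 0.1% DMSO final. IC50 derived by four-parameter fit of percent inhibition, normalized to DMSO control and medium blank.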
For orientation: Cellular ATP, detected with luciferase, serves as a proxy for viable cell number.

The mark [3] stands for this setting: Homo sapiens, MIA PaCa-2, 2 h, MIA PaCa2 cells, 2 hours with compound, Advance ERK phospho-T202/Y204 HTRF kit.
Where [4] appears, read: Homo sapiens, MIA PaCa-2, 120 h, 3D cell model in 384-well spheroid plate, 5 days, CellTiter-Glo.
[5] abbreviates: MIA PaCa2 cells, 2 hours with compound, Advance ERK phospho-T202/Y204 HTRF kit.
Where [6] appears, read: 3D cell model in 384-well spheroid plate, 5 days, CellTiter-Glo.

For six molecules, IC50 results are on record in patent US20230203060A1 (GENFLEET THERAPEUTICS (SHANGHAI) INC., priority 2020, published 2023).

Counter-ions that a name gives are not always drawn. Like-named read-outs stand apart in the source and are kept apart here.

As for `C=CC(=O)N1CCN2C(=O)c3c(N4C[C@@H](O)C[C@@H]4C)nc(-c4c(O)cccc4F)c(Cl)c3OC[C@H]2C1` [Z260, (6aR)-8-acryloyl-4-chloro-3-(2-fluoro-6-hydroxyphenyl)-1-((2S,4S)-4-hydroxy-2-methylpyrrolidin-1-yl)-6,6a,7,8,9,10-hexahydro-12H-pyrazino[2,1-c]pyrido[3,4-f][1,4]oxazepin-12-one], the concentration for half-maximal inhibition (IC50) (as a rule, the point on the concentration scale where inhibition reaches its midpoint) in assay [1] (setting [3]) is 91 nM; in assay [2] (setting [4]), 4.4 nM.

Consider `C=CC(=O)N1CCN2C(=O)c3c(N4CCN(C)C(C)(C)C4)nc(-c4c(O)cccc4F)c(Cl)c3OC[C@H]2C1` [Z261, (6aR)-8-acryloyl-4-chloro-3-(2-fluoro-6-hydroxyphenyl)-1-(3,3,4-trimethylpiperazin-1-yl)-6,6a,7,8,9,10-hexahydro-12H-pyrazino[2,1-c]pyrido[3,4-f][1,4]oxazepin-12-one], for which the values for the IC50 in assay [1] (setting [3]) and in assay [2] (setting [4]) were 59 nM and 10.6 nM, respectively.

With `C=CC(=O)N1CCN2C(=O)c3c(N4CCN(C)C(C)C4C)nc(-c4c(O)cccc4F)c(Cl)c3OC[C@H]2C1` (stereo partly drawn) [Z308a, (6aR)-8-acryloyl-4-chloro-3-(2-fluoro-6-hydroxyphenyl)-1-(2,3,4-trimethylpiperazin-1-yl)-6,6a,7,8,9,10-hexahydro-12H-pyrazino[2,1-c]pyrido[3,4-f][1,4]oxazepin-12-one], the 50% inhibitory concentration (IC50) was found to be 21 nM in assay [1] (setting [5]) and 1.7 nM in assay [2] (setting [6]).

For `C=CC(=O)N1CCN2C(=O)c3c(C4NCCN5C(=O)CCC45C)nc(-c4c(O)cccc4F)c(Cl)c3OC[C@H]2C1` (stereo partly drawn) [Z337, (6aR)-8-acryloyl-4-chloro-3-(2-fluoro-6-hydroxyphenyl)-1-(8a-methylhexahydropyrrolo[1,2-a]pyrazin-6 (2H)-one-1-yl)-6,6a,7,8,9,10-hexahydro-12H-pyrazino[2,1-c]pyrido[3,4-f][1,4]oxazepin-12-one], the IC50 in assay [1] (setting [5]) stood at 154 nM; in assay [2] (setting [6]), 16 nM.

In the case of `C=CC(=O)N1CCN2C(=O)c3c(N4CCN(C)C(C)(C)C4)nc(-c4ccccc4F)c(Cl)c3OC[C@H]2C1` [Z463, (R)-8-acryloyl-4-chloro-3-(2-fluorophenyl)-1-(3,3,4-trimethylpiperazin-1-yl)-6,6a,7,8,9,10-hexahydro-12H-pyrazino[2,1-c]pyrido[3,4-f][1,4]oxazepin-12-one, formate], the IC50 was 271 nM in assay [1] (Homo sapiens, MIA PaCa-2, 2 h) and 59 nM in assay [2] (Homo sapiens, MIA PaCa-2, 120 h).

Take `C=CC(=O)N1CCN2C(=O)c3c(N4CC(N(C)CC(F)F)CC4(C)C)nc(-c4ccccc4F)c(Cl)c3OC[C@H]2C1` (stereo partly drawn) [Z659]: the IC50 came out at 26 nM in assay [1] (setting [5]) and 9.3 nM in assay [2] (setting [6]).
